Measurements taken from PMC11475408, “All‐Inorganic Polyoxometalates Act as Superchaotropic Membrane Carriers” (Advanced Materials (Deerfield Beach, Fla.), 2023).
Read-outs that look alike come from different tables or passages of the source.

Experiments:
[1] = CF transport assay in EYPC⊃CF vesicles (carrier activity); type: biochemical; set-up: key to Carrier activity: ‐ – ‐: No detectable activity at pH 5.5 and 7.4; settings: for heptaLys Ymax / EC50 / HeptaArg Y max / PolyArg Y max / Protamine Y max / HeptaArg Ymax, pH 5.5 / PolyArg Ymax, pH 5.5 / Protamine Ymax, pH 5.5: CF assay; for heptaLys Ymax: 13 µM phospholipids; for heptaLys Ymax / HeptaArg Y max / PolyArg Y max / Protamine Y max / HeptaArg Ymax, pH 5.5: ±2% error (SD); for HeptaArg Y max: 13 µM lipid, 10 mM Hepes or Tris, 10 min, Hill fit, triplicates; for heptaLys E / PolyArg E (activation efficiency) / Protamine E (activation efficiency) / HeptaArg E (activation efficiency) / HeptaArg E, pH 5.5 / PolyArg E, pH 5.5 / Protamine E, pH 5.5: f = 20.6; for heptaLys E / PolyArg E (activation efficiency) / Protamine E (activation efficiency) / HeptaArg E (activation efficiency) / HeptaArg E, pH 5.5: 10% error; for HeptaArg E (activation efficiency): E = Ymax(pEC50/f); for Transport activity (in words): EYPC⊃CF vesicles, neutral pH, carrier then cargo; for Onset for transport activity (carrier concentration): vesicles, heptaArg dose-response curves (Figure 2b)
Excerpt: The capability of POMs to act as membrane carriers was explored first in large unilamellar vesicles (LUVs) loaded with carboxyfluorescein (CF).^[ [54], [55] ^] We selected […] representative cationic peptides, heptaarginine (heptaArg), heptalysine (heptaLys), protamine, and polyarginine (polyArg), as test cargos. Inside the LUVs, the CF dye was encapsulated at self‐quenching concentrations. With a suitable carrier, heptaArg can be taken up into the vesicles, bind with entrapped CF, and shuttle back to the exterior, diluting the previously quenched CF, and thereby restoring its fluorescence (Figure 1c). In the time‐resolved fluorescence experiments (Figure 2a), to test whether a particular POM acts as molecular carrier, the CF emission was continuously monitored during the addition of the inorganic carrier (t = 60 s) and after injection of the impermeable selected cargo (t = 120 s). Toward the end of the experiment (t = 600 s), the surfactant Triton X‐100 was added to release all the entrapped CF and allow normalization of the intensity data.
A thin lipid film was prepared by evaporating a lipid solution of EYPC (egg yolk phosphatidylcholine, 25 mg) in CHCl3 (1 mL) with a stream of nitrogen and then dried in vacuo overnight. The dry film was rehydrated with 1 mL buffer (50 mM CF, 10 mM Hepes, pH 7.4 or 50 mM CF, 10 mM Tris, pH 7.4) for 30 min at room temperature, subjected to freeze–thaw cycles (7 times) and extrusions (15 times) through a polycarbonate membrane (pore size 100 nm). Extravesicular components were removed by size exclusion chromatography (NAP‐25 column Sephadex G‐25 DNA grade) with 10 mM Hepes, 107 mM NaCl, pH 7.4, or 10 mM Hepes, 107 mM NaCl, pH 7.4. Phospholipid concentration was calculated by the Stewart assay.^[ [81] ^]
Acidic vesicles were prepared analogously but the rehydration and elution buffer were 50 mM CF, 10 mM Mes, pH 5.5 and 10 mM Mes, 107 mM NaCl, pH 5.5. respectively.
Vesicles stock solutions (5–10 µL) were diluted with the corresponding buffer in a disposable plastic cuvette and gently stirred (total volume 2000 µL, final lipid concentration 13 µM). Carboxyfluorescein fluorescence was monitored at λ em = 517 nm (λ ex = 492 nm) as a function of time after addition of POMs at 60 s, analyte at 120 s and Triton X‐100 (24 µL 1.2% wt/vol) at 600 s to lyse the vesicles, for calibration. Fluorescence intensities were normalized to fractional emission as (1) It=It−I0/I∞−I0 where I 0 = I t before POM addition and […] after lysis. For Hill analysis, I t before lysis was defined as transport activity, Y, and plotted against POM concentration, c, and fitted to the Hill Equation (2), to afford the activity in absence of POM, Y 0, the maximal activity, Y max, the concentration needed to achieve 50% of maximal activity, EC 50, and the Hill coefficient, n (2) Y=Y0+Ymax−Y0/1+EC50/c^n
In the transport measurements, where different carriers (POMs) are tested with the same cargo, the activator efficiency (E) is determined by their capacity to transport the impermeable cargo to the intravesicular region and is characterized by Y max, its maximal activity, and EC 50, the effective activator concentration. An ideal carrier reaches high Y max at low EC 50. To count both factors, the activator efficiency is defined as (3) E=YmaxpEC50/f were pEC 50 is the negative logarithm of the EC 50, and f a scaling factor, which was set to 20.6 to calibrate the highest (previously known) activation efficiency, E, as 10.^[ [55] ^]

[2] = test system: polyarginine; experiment: ITC, POM into polyarginine; type: binding; settings: 10 mM Tris, pH 7.4, value is Ka divided by 10^7
Experimental: All experiments were performed with a VP‐ITC MicroCalorimeter from MicroCal, Int,. at atmospheric pressure and 298.15 K. Solutions were degassed and thermostatic prior to the titration experiments in a ThermoVac accessory. A constant volume of POM ([PVW11]^4‒ or [SiMoW11]^4‒) (10 µL per injection) was injected into the oligopeptide solution (heptaArg, protamine, polyArg or heptaLys) in 10 mM Tris, pH 7.4 to determine the apparent binding affinity of [PVW11]^4‒ and [SiMoW11]^4‒ with the oligopeptides. Dilution heats were determined by titration of the POM into buffer and subtracted from the reaction heat. The neat reaction heat was fitted with Origin 7.0 software by using the “one‐set‐of‐sites” model to obtain the complex stability constant (K a) and molar reaction enthalpy (∆H°). The free energy (∆G°) and entropy changes (∆S°) were obtained according to the relation: ∆G° = −RTlnK a = ∆H°−T∆S°.
4. Supramolecular interactions
Figure S10. Microcalorimetric titrations in 10 mM Tris, pH 7.4: Raw ITC data (top) for the sequential injections of POM solution into an oligoarginine solution, and apparent reaction heats (bottom) obtained from the integration of the calorimetric traces. […]
values and ± 0.5 kcal mol‒1 for ΔH and TΔS (duplicate measurements). Note that none of these interactions lead to any precipitation or aggregates, confirmed by the absence of any detectable signal by DLS. […]

[3] = Hydrolysis/stability of POMs in buffer by NMR; settings: for Hydrolysis/stability pH 5.5: 10 mM Mes, 107 mM NaCl, long-term (24 h and longer)
Experimental: First, their long‐term (24 h and longer) fate in aqueous solution (slightly acidic and neutral) was investigated by applying the active NMR nuclei in their composition (Table S9 and Figures S24–S37, see the Supporting Information for details).
NMR-spectroscopic characterization of identity and stability
NMR spectroscopy for all POMs tested was performed under experimental conditions.

[4] = EYPC (zwitterionic), heptaLys cargo
[5] = EYPC (zwitterionic), heptaLys cargo, 5% error (SD), read-out: heptaLys EC50
[6] = EYPC LUVs, 10 µM heptaArg, 107 mM NaCl, pH 7.4
[7] = EYPC LUVs, 0.1 µM polyArg, pH 7.4, 5% error (SD), read-out: PolyArg EC 50
[8] = EYPC LUVs, 0.1 µM polyArg, pH 7.4
[9] = EYPC LUVs, 1 µM protamine, pH 7.4, 5% error (SD), read-out: Protamine EC 50
[10] = EYPC LUVs, 1 µM protamine, pH 7.4
[11] = EYPC LUVs, 10 µM heptaArg, pH 7.4, carrier concentration for 50% of Ymax, 5% error (SD), read-out: HeptaArg EC 50
[12] = EYPC vesicles, 10 µM heptaArg, 10 mM Mes, 107 mM NaCl, pH 5.5
[13] = EYPC vesicles, heptaArg cargo, 10 mM Mes, 107 mM NaCl, pH 5.5, 5% error (SD), read-out: HeptaArg EC50, pH 5.5
[14] = EYPC vesicles, polyArg cargo, 10 mM Mes, 107 mM NaCl, pH 5.5
[15] = EYPC vesicles, polyArg cargo, pH 5.5, read-out: PolyArg EC50, pH 5.5
[16] = EYPC vesicles, protamine cargo, 10 mM Mes, 107 mM NaCl, pH 5.5
[17] = EYPC vesicles, protamine cargo, pH 5.5, read-out: Protamine EC50, pH 5.5
[18] = EYPC LUVs, 10 µM heptaArg, pH 7.4
[19] = EYPC vesicles, protamine, pH 5.5
[20] = 3 mM POM, 10 mM Mes pH 5.5, 31P NMR integration
[21] = 3 mM POM, 10 mM Tris-HCl pH 7.5, 31P NMR integration

EC50 [1, 5] | EC50 [1, 7] | EC50 [1, 9] | EC50 [1, 11] | EC50 [1, 13] | EC50 [1, 15] | EC50 [1, 17] | Hydrolysis/stability pH 5.5 ([3]; NMR) | Substance | heptaLys Ymax [1, 4] | HeptaArg Y max [1, 6] | PolyArg Y max [1, 8] | Protamine Y max [1, 10] | HeptaArg Ymax, pH 5.5 [1, 12] | PolyArg Ymax, pH 5.5 [1, 14] | Protamine Ymax, pH 5.5 [1, 16] | heptaLys E [1, 4] | PolyArg E (activation efficiency) [1, 8] | Protamine E (activation efficiency) [1, 10] | HeptaArg E (activation efficiency) [1, 18] | Transport activity (in words) [1] | further results
22 µM | 13 µM | 19 µM | 17 µM | 9 µM | 5 µM | 14 µM | Stable | K4[α‐Si^IVMo^VIW^VI 11O40]·24H2O [[SiMoW11]^4‒] | 54% | 66% | 94% | 72% | 66% | 86% | 80% | 4.4 | 8.6 | 6.0 | 5.7 | triggered the desired increase in fluorescence characteristic for cargo transport | HeptaArg E, pH 5.5 ([1]; EYPC vesicles, pH 5.5): 6.6; PolyArg E, pH 5.5 ([1]; EYPC vesicles, pH 5.5): 9.7; Protamine E, pH 5.5 [1, 19]: 7.3; Onset for transport activity (carrier concentration) [1]: around 1 µM; Ka/ 107, polyarginine [2]: 1.6 M‒1; Solution stability in Mes pH 5.5 (183W NMR) ([3]; 10 mM POM, 33 mM Mes pH 5.5 (final pH 5), only signals of intact anion, acquisition 60 h): solution stability for up to 60 h; % parent anion, Tris-HCl pH 7.5 (183W NMR) ([3]; 10 mM POM, 33 mM Tris pH 7.5 (final pH 6.9), 183W NMR signal intensities, acquisition 60 h): 45%; Hydrolysis at pH 7.5 (fraction hydrolysed) ([3]; neutral buffer pH 7.5, high concentration, NMR, after 24 h): 45%
38 µM | 12 µM | 41 µM | 49 µM | 28 µM | 5 µM | 19 µM | Stable | K4[α‐P^VV^VW^VI 11O40]·4H2O [[PVW11]^4‒] | 62% | 84% | 88% | 88% | 79% | 91% | 79% | 4.3 | 8.2 | 5.9 | 5.3 | triggered the desired increase in fluorescence characteristic for cargo transport | HeptaArg E, pH 5.5 ([1]; EYPC vesicles, pH 5.5): 5.9; PolyArg E, pH 5.5 ([1]; EYPC vesicles, pH 5.5): 10.1; Protamine E, pH 5.5 [1, 19]: 6.6; Onset for transport activity (carrier concentration) [1]: around 1 µM; Ka/ 107, polyarginine [2]: 3.5 M‒1; % monolacunary [PVWVI11O39]7‒ formed, Mes pH 5.5 after 1 day [3, 20]: 1%; % monolacunary [PVWVI11O39]7‒ formed, Mes pH 5.5 after 5 days [3, 20]: 1%; % parent anion, Mes pH 5.5 after 1 day [3, 20]: 99%; % parent anion, Mes pH 5.5 after 5 days [3, 20]: 99%; % parent (active) anion, Mes pH 5.5 freshly prepared ([3]; 3 mM POM, 10 mM Mes pH 5.5, 31P NMR signal integration, appr. 3 h after dissolution): 99%; % parent anion, Tris-HCl pH 7.5 after 1 day [3, 21]: 71%; % parent anion, Tris-HCl pH 7.5 after 5 days [3, 21]: 68%
– | – | – | – | – | – | – | to [P^VW^VI 11O39]^7‒ | Na3[α‐P^VW^VI 12O40]·nH2O [[PW12]^3‒] | – | – | – | – | – | – | – | – | – | – | – | neither an interaction with the membrane nor cargo transport | Carrier activity ([1]; EYPC vesicles, pH 5.5 and 7.4, cargos heptaArg, protamine, polyArg ([AlMo6]: heptaArg and protamine only)): ‐ – ‐ ^k) , ^l); % monolacunary [PVWVI11O39]7‒ formed, Mes pH 5.5 after 1 day [3, 20]: 61%; % monolacunary [PVWVI11O39]7‒ formed, Mes pH 5.5 freshly prepared [3, 20]: 61%; % parent anion, Mes pH 5.5 after 1 day [3, 20]: 5%; % parent anion, NaOAc/HOAc pH 4 after 1 day ([3]; 3 mM POM, 10 mM NaOAc/HOAc pH 4, 31P NMR integration): 28%
